Results published in patent US11834663B2, “Fibrotic treatment” (Monash University, priority 2015, dated 2023).

Tested on: hearts of aged (18-22 month old) WT mice
Assay: Reversal of age-induced cardiac fibrosis and inflammation in aged WT mice (histology, immunofluorescence, western blot)
Type: in vivo, mouse
Conditions: aged (~20 month old) WT mice, 4 weeks, FIG. 19
Description: There are 8 different sets of in vivo experiments in this study: • A) Phenotypic characterisation of the heart and blood vessels in global IRAP knockout mice and their WT controls treated for 4 weeks with Angiotensin (Ang) II (800 ng/kg/min; s.c.) where mouse hearts and blood vessels were compared to tissue obtained from young WT and IRAP^−/− mice treated with saline. • B) Prevention of Ang II-induced changes in the cardiovascular system following IRAP inhibitor treatment. In the prevention model, WT mice were treated with Ang II (800 ng/kg/min; s.c.)±the IRAP inhibitor (HFI-419; 500 ng/kg/min for 28 days) or HFI-vehicle (1 DMSO:3 HBC). • C) Phenotypic characterisation of the aged heart, kidney and blood vessels in the global IRAP knockout mice where aged WT and IRAP^−/− mouse hearts, kidneys and blood vessels were compared to tissue obtained from young WT and IRAP^−/− mice. • D) Reversal of the age-induced changes in the cardiovascular system following IRAP inhibitor treatment. In the reversal model, aged WT mice were treated with either saline, IRAP inhibitor (HFI-419 at 500 ng/kg/min; compound 1 at 500 ng/kg/min; compound 2 at 50 ng/kg/min) or HFI-vehicle (1 DMSO: 3 HBC) for 4 weeks. • E) Prevention of ischemic-reperfusion injury in isolated hearts taken from aged global IRAP knockout mice and aged IRAP inhibitor (HFI-419 at 500 ng/kg/min; s.c.) treated WT mice compared to age-matched vehicle-treated (1 DMSO:3 HBC; s.c.) WT controls. • F) Phenotypic characterization of cardiac function using echocardiography in the aged global IRAP knockout mice compared to aged and young WT mice. • G) Phenotypic characterization of liver steatosis in IRAP knockout mice in a high fat diet (HFD) model. • H) Reversal of the salt-induced fibrosis in the liver following IRAP inhibitor treatment.
All mice which underwent surgery were anaesthetized with Isoflurane (Isorrane) (5% induction and 2.5% maintenance) and an incision made in the midscapular region through which osmotic minipumps (Alzet model 2004, Alza Corp) were inserted for subcutaneous drug administration. The incision area was sutured with 6/0 DY silk (Dynek Pty Ltd) and antibiotic powder applied (Cicatrin, Pfizer) followed by intramuscular injection of the analgesic Cartrophen (0.1 ml of a 1.5 mg/ml stock solution; Biopharm Australia). Systolic blood pressure (SBP) was measured fortnightly using non-invasive tail-cuff plethysmography apparatus (MC4000 Blood Pressure Analysis System, Hatteras Instrument Inc) before drug treatment (week 0), at week 2 of treatment and end of treatment (week 4). At the end of drug treatment, body weight of mice was recorded. Mice were anaesthetized using Isoflurane inhalation and killed by cervical dislocation. Organs (heart, aorta, kidneys, brain, blood and tibia) were collected, with heart and aorta being dissected appropriately as described below. All organs were then snap frozen in liquid nitrogen, and stored at −80° C. if they were not used for vascular reactivity studies conducted on the day mice were killed.
To measure collagen deposition, frozen sections of heart, kidney or aorta (all 5 μm thickness) were air dried for 10 minutes and were brought through 3 times xylene (2 minutes each), and 3 times absolute alcohol washes before being rinsed in tap H2O for 30 seconds. Staining with an optimal concentration of picrosirius red (in this instance 0.05% picrosirius red diluted in saturated picric acid) was performed and left for an hour. Sections were then rinsed in water and differentiated in 0.01 M HCl for 2 minutes, followed by dehydration via 3 times absolute alcohol washes. Then, slides were brought through 3 times xylene washes before being cover slipped according to standard histological techniques using DPX as the mounting medium. […]

| Compound | age-induced collagen expression in the heart (picrosirius red) (compound 1 at 500 ng/kg/min) | age-induced collagen expression in the heart (picrosirius red) (compound 2 at 50 ng/kg/min) |
| --- | --- | --- |
| CC(=O)C1=C(C)OC(N)=C(C#N)C1c1ccc(C(=O)O)cc1.N (centres unmarked) [Compound 1, 4-(3-acetyl-6-amino-5-cyano-2-methyl-4H-pyran-4-yl)benzoic acid] | reverse |  |
| N[C@H]1CCSSC[C@@H](C(=O)NCc2ccccc2CC(=O)O)NC(=O)C[C@H](Cc2ccc(O)cc2)NC1=O [Compound 2] |  | reverse |
